Molecules are shown by their SMILES.

What all share (assay): Kinase profiling
Type in all cases: biochemical

For assay [1], the target named is T1, HRI (Homo sapiens, UniProt Q9BQI3).
T1 construct: purchased ProQinase (Freiburg, Germany)
As for the experimental part:
(§1) The analysis was performed by ProQinase (Freiburg, Germany).

In assay [2] the target is T2, CLK2 (Homo sapiens, UniProt P49760).
T2 construct: purchased ProQinase (Freiburg, Germany)
As for the experimental part: as §1

For assay [3], the target named is T3, FGFR2 (Homo sapiens, UniProt P21802).
T3 construct: purchased ProQinase (Freiburg, Germany)
T3 sequence (P21802 22-821): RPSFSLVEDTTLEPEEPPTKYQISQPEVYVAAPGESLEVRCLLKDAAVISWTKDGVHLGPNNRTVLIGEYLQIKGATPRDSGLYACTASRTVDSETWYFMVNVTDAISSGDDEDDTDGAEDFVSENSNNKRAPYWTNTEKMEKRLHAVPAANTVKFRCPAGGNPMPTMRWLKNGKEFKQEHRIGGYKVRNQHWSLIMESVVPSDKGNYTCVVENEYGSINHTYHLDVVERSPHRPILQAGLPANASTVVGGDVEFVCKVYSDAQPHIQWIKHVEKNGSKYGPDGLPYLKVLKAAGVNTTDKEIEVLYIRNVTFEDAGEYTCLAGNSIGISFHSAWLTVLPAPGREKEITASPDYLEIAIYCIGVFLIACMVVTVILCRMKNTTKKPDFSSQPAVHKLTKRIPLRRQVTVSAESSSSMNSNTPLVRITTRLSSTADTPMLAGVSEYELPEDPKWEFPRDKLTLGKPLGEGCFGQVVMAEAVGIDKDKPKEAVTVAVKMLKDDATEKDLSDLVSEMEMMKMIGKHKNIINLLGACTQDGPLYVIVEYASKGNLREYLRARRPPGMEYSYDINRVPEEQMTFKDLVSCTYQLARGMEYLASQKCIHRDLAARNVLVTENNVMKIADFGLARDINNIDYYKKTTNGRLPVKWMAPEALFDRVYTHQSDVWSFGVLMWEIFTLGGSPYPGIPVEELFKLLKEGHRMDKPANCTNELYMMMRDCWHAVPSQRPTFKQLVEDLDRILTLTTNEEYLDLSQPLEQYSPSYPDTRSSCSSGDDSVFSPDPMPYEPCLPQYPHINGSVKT
The procedure:
as §1

Assay [4] has as its target T4, LRRK2 (Homo sapiens, UniProt Q5S007).
T4 construct: purchased ProQinase (Freiburg, Germany)
The procedure:
as §1

Assay [5] has as its target T5, CDK20/CycH (Homo sapiens, UniProt Q8IZL9).
T5 construct: purchased ProQinase (Freiburg, Germany)
The procedure: as §1

Assay [6] addresses T6, CAMKK1 (Homo sapiens, UniProt Q8N5S9).
T6 construct: purchased ProQinase (Freiburg, Germany)
As for the experimental part:
as §1

For assay [7], the target named is T7, PRKG1 (Homo sapiens, UniProt Q13976).
T7 construct: purchased ProQinase (Freiburg, Germany)
T7 sequence (Q13976 1-671): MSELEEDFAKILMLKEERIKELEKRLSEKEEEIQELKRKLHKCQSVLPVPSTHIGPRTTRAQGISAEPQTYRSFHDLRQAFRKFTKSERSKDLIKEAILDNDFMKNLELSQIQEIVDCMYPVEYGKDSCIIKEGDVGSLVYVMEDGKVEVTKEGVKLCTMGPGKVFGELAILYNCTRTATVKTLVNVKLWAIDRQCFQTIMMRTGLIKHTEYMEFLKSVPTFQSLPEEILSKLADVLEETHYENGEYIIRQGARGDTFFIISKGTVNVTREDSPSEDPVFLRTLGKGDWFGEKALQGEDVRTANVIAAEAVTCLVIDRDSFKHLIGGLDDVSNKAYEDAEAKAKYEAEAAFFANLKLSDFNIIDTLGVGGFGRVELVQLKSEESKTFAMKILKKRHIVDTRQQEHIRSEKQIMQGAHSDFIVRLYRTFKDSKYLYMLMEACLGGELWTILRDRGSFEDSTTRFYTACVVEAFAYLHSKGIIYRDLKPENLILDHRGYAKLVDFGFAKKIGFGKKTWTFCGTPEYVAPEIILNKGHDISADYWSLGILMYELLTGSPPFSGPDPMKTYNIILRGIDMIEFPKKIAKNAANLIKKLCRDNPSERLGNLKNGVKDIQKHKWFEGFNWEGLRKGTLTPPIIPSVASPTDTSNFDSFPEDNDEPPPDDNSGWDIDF
As for the experimental part:
as §1

The target in assay [8] is T8, FES (Homo sapiens, UniProt P07332).
T8 construct: purchased ProQinase (Freiburg, Germany)
T8 sequence (P07332 whole entry): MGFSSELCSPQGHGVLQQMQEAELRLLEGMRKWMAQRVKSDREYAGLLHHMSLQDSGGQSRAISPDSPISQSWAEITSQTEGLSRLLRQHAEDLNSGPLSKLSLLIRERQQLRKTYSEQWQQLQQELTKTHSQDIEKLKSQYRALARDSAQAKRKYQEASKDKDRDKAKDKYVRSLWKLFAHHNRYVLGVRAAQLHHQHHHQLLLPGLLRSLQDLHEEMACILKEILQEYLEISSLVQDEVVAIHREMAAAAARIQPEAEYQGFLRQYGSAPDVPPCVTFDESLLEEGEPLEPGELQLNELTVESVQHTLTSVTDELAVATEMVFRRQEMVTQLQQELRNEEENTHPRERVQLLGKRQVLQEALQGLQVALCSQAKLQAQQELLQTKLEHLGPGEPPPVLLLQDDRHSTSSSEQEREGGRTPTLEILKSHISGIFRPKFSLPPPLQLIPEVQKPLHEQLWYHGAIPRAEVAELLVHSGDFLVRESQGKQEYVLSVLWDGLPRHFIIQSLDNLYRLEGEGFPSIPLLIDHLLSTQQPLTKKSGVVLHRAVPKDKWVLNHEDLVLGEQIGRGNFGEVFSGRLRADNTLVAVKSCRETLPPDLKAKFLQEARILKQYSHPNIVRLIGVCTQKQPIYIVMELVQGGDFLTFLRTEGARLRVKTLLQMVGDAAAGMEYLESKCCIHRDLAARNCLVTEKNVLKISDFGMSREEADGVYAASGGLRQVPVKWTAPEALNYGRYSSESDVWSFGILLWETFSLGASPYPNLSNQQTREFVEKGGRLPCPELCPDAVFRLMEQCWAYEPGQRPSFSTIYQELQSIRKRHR
As for the experimental part: as §1

For assay [9], the target named is T9, CDK20/CycT1 (Homo sapiens, UniProt Q8IZL9).
T9 construct: purchased ProQinase (Freiburg, Germany)
T9 sequence (Q8IZL9 whole entry): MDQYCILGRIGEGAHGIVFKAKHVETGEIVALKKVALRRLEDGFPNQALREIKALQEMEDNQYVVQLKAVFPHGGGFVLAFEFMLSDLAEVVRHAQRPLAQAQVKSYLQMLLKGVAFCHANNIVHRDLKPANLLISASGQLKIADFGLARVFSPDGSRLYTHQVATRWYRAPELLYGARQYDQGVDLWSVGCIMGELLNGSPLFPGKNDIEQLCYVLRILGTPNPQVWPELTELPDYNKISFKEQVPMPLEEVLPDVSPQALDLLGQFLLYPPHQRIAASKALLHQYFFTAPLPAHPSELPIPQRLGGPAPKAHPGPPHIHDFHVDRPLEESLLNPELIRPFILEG
T9 sequence (O60563 whole entry partner): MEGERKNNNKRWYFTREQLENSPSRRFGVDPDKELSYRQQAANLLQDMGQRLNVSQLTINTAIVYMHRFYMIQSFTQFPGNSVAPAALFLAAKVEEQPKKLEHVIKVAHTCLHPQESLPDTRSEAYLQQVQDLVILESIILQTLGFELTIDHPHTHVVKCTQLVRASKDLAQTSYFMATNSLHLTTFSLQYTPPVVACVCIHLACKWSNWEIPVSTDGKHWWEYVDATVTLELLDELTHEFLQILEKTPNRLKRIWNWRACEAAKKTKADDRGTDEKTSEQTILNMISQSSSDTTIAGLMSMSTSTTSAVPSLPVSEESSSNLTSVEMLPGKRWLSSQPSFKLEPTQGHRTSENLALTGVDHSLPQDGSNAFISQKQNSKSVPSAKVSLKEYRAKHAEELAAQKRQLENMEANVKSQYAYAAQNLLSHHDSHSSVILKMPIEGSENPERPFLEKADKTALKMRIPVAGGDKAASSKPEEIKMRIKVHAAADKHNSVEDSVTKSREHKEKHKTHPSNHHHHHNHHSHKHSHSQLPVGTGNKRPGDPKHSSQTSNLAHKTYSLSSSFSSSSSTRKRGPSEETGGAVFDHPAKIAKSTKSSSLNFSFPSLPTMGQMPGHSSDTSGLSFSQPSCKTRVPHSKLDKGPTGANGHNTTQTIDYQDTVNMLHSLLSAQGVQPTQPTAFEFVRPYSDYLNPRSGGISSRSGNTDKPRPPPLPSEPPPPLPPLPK
The procedure: as §1

In assay [10] the target is T10, DYRK2 (Homo sapiens, UniProt Q92630).
T10 construct: purchased ProQinase (Freiburg, Germany)
T10 sequence (Q92630 1-601): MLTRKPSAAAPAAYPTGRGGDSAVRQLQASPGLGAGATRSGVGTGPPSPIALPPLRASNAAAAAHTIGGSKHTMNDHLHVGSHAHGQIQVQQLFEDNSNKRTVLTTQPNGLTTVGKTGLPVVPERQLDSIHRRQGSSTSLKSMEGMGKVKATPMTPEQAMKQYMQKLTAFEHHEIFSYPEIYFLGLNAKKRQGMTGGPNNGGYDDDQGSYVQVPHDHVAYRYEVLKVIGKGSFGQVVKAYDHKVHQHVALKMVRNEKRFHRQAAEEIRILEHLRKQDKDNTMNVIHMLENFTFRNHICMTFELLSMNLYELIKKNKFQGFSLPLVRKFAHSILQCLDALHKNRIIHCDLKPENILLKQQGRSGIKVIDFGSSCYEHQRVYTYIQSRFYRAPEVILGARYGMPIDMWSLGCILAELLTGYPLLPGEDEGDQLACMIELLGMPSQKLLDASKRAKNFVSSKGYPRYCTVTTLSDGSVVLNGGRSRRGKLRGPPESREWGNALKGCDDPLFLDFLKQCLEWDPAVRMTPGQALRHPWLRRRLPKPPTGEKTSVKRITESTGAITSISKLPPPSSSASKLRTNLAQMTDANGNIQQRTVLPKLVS
As for the experimental part: as §1

Assay [11] has as its target T11, KIT (Homo sapiens, UniProt P10721).
T11 construct: purchased ProQinase (Freiburg, Germany)
The procedure:
as §1

T6 sequence (Q8N5S9 whole entry): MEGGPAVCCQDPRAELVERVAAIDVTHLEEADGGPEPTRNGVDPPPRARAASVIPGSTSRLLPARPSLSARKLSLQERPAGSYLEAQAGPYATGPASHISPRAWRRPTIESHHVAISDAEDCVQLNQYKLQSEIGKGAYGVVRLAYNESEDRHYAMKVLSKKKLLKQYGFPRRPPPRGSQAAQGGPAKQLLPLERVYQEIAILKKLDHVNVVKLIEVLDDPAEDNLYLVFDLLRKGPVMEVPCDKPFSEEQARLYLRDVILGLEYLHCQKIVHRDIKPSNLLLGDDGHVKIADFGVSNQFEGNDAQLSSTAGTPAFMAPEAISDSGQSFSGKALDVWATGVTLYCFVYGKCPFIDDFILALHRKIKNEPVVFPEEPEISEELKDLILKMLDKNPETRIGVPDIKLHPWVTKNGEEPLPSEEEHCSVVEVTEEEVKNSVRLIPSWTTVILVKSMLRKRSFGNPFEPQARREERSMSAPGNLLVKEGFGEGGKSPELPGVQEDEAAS
T2 sequence (P49760 whole entry): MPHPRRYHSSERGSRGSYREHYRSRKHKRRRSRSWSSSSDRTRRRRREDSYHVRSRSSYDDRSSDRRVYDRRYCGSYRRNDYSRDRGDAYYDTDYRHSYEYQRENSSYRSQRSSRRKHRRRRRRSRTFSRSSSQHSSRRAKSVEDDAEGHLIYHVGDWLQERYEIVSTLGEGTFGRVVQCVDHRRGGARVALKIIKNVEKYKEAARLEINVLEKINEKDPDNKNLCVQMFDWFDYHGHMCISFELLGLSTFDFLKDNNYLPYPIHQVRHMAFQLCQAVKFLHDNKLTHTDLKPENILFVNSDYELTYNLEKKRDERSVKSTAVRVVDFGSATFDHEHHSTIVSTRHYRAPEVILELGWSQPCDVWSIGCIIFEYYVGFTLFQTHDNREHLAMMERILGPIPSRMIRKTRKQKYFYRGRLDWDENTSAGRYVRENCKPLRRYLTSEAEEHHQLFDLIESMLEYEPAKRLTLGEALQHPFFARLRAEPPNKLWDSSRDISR
T5 sequence (Q8IZL9 whole entry): as the sequence (Q8IZL9 whole entry) above
T5 sequence (P51946 whole entry partner): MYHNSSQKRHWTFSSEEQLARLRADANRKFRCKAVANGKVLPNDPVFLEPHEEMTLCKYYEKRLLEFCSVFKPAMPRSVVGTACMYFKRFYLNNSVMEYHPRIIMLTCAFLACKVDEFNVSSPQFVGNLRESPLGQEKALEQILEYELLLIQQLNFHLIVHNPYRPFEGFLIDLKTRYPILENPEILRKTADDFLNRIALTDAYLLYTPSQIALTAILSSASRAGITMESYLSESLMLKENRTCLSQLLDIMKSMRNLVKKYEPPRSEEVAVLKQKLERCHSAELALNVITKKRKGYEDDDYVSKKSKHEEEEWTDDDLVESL
T1 sequence (Q9BQI3 whole entry): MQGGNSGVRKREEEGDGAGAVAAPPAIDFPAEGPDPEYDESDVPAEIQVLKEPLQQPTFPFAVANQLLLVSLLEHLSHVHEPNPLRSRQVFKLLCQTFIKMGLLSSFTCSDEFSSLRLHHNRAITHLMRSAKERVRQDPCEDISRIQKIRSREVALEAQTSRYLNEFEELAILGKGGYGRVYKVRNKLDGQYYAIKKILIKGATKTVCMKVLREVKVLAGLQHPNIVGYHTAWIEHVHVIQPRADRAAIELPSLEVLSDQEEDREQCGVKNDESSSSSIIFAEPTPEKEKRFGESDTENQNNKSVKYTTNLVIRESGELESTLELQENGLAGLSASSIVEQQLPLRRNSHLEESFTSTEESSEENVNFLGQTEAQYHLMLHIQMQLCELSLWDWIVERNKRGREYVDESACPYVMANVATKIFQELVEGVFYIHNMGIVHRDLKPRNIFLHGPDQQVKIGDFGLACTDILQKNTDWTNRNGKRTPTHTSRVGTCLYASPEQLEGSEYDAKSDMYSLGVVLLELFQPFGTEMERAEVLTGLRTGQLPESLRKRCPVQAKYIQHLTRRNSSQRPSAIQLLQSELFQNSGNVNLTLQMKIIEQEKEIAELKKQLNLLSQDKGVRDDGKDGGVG

As to `O=C(Nc1ccc(F)c(Nc2ccc3c(c2)CCCCC3=O)c1)c1cccc(F)c1` [Compound 109], the Residual activity in assay [1] (1.0E-05 M) was 129 % of control; in assay [1] (1.0E-06 M), 98 % of control; in assay [2] (1.0E-05 M), 103 % of control; in assay [2] (1.0E-06 M), 112 % of control; in assay [3] (1.0E-05 M) it was 74 % of control; in assay [3] (1.0E-06 M), 97 % of control. Moreover, the Residual activity in [4] (1.0E-05 M) was 90 % of control; in assay [4] (1.0E-06 M), 94 % of control; in assay [5] (1.0E-05 M), 121 % of control; in [5] (1.0E-06 M), 110 % of control; in assay [6] (1.0E-05 M), 75 % of control; in [6] (1.0E-06 M) it was 77 % of control. Also, the Residual activity in assay [7] (1.0E-05 M) is 90 % of control; in assay [7] (1.0E-06 M), 113 % of control; in assay [8] (1.0E-05 M), 90 % of control; in assay [8] (1.0E-06 M) it was 79 % of control; in [9] (1.0E-05 M) it was 101 % of control; in assay [9] (1.0E-06 M), 96 % of control. For the same compound, the Residual activity in assay [10] (1.0E-05 M) was 92 % of control; in [10] (1.0E-06 M) it was 98 % of control; in [11] (1.0E-05 M), 78 % of control; in assay [11] (1.0E-06 M), 88 % of control.

Turning to `O=C(Cc1ccccc1)Nc1ccc(F)c(Nc2ccc3c(c2)CCCCC3=O)c1` [Compound 100], the Residual activity in [1] (1.0E-05 M) is reported as 123 % of control; in assay [1] (1.0E-06 M), 120 % of control; in assay [2] (1.0E-05 M), 107 % of control; in assay [2] (1.0E-06 M) it was 117 % of control; in [3] (1.0E-05 M), 51 % of control; in assay [3] (1.0E-06 M), 90 % of control. In addition, the Residual activity in [4] (1.0E-05 M) is reported as 92 % of control; in [4] (1.0E-06 M) it was 89 % of control; in assay [5] (1.0E-05 M), 98 % of control; in assay [5] (1.0E-06 M) it was 103 % of control; in assay [6] (1.0E-05 M) it was 80 % of control; in assay [6] (1.0E-06 M) it was 78 % of control. Moreover, the Residual activity is listed as 96 % of control in [7] (1.0E-05 M); 120 % of control in assay [7] (1.0E-06 M); 67 % of control in assay [8] (1.0E-05 M); 81 % of control in assay [8] (1.0E-06 M); 92 % of control in [9] (1.0E-05 M); 98 % of control in assay [9] (1.0E-06 M). The Residual activity is 91 % of control in assay [10] (1.0E-05 M), 89 % of control in assay [10] (1.0E-06 M), 78 % of control in assay [11] (1.0E-05 M) and 87 % of control in assay [11] (1.0E-06 M).

The values are drawn from paper PMC9030254, “Target Hopping from Protein Kinases to PXR: Identification of Small-Molecule Protein Kinase Inhibitors as Selective Modulators of Pregnane X Receptor from TüKIC Library” (Cells, 2022).
